This experiment addresses human TRPA1 (Homo sapiens (Human), UniProt O75762). As to the kind of experiment: Measurement of TRPA1 antagonist activity (1): intracellular calcium increase. Format: cell-based. The conditions noted are these: 293T cells transfected with human TRPA1 expression plasmid; allylisothiocyanate 20 μM stimulation; intracellular calcium fluorescence; read-out: hTRPA1 IC50. Summed up:
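Calcium-flux readout of TRPA1 block: compound given 10 min before 20 μM (final) allylisothiocyanate, fluorescence tracked 5 min. Cells were 293T transiently expressing human TRPA1, dye-loaded 1 hr in HBSS, 20 mM HEPES, pH 7.2. Inhibition scaled between agonist-only and buffer-only responses; IC50 by sigmoid fitting.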

Chain of human TRPA1 (O75762 whole entry): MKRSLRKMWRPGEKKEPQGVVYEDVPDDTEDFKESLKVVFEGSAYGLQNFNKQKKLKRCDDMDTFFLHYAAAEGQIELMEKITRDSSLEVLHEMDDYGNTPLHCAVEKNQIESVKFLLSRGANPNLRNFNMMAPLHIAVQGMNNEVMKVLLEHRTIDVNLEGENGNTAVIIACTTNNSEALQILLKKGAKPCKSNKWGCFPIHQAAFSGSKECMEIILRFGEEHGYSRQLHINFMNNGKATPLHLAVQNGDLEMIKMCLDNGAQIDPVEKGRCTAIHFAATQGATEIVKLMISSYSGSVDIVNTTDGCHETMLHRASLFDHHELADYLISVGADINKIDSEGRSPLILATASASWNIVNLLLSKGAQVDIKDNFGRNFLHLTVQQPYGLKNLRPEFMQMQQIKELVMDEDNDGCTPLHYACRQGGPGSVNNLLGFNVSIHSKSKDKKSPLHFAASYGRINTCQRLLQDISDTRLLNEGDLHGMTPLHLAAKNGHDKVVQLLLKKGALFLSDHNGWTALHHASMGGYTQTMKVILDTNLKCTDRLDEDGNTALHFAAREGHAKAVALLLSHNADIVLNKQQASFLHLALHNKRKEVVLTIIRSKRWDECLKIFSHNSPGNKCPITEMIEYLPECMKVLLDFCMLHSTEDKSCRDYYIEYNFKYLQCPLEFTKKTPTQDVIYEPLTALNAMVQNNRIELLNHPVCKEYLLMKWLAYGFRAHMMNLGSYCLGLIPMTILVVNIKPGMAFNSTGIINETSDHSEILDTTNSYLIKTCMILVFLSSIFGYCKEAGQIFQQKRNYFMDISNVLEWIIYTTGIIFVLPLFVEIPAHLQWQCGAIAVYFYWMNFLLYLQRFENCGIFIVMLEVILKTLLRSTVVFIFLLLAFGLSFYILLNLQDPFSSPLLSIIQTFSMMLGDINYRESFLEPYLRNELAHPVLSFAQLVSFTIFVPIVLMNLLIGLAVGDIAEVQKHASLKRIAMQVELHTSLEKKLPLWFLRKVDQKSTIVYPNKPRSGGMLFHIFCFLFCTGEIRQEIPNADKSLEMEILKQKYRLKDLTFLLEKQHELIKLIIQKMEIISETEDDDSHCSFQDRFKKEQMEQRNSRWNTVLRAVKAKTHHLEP

As usually defined, the IC50 is the concentration needed to halve the response being measured. Regarding `C[C@H](NS(=O)(=O)c1cc2cc(F)ccc2o1)C(=O)NCc1cc(-c2cnc(C(F)(F)F)nc2)ccn1` [Example 241, (2S)-2-[(5-fluorobenzofuran-2-yl)sulfonylamino]-N-[[4-[2-(trifluoromethyl)pyrimidin-5-yl]-2-pyridyl]methyl]propanamide], the IC50 was 75 nM. As for `C[C@H](NS(=O)(=O)c1cc2cc(F)ccc2o1)C(=O)NCc1cc(-c2ncc(C(F)(F)F)cn2)ccn1` [Example 242, (2S)-2-[(5-fluorobenzofuran-2-yl)sulfonylamino]-N-[[4-[5-(trifluoromethyl)pyrimidin-2-yl]-2-pyridyl]methyl]propanamide], the IC50 worked out at 160 nM. Next, `C[C@H](NS(=O)(=O)c1cc2cc(F)ccc2o1)C(=O)NCc1cc(-c2cnc(C(F)(F)F)cn2)ccn1` [Example 243, (2S)-2-[(5-fluorobenzofuran-2-yl)sulfonylamino]-N-[[4-[5-(trifluoromethyl)pyrazin-2-yl]-2-pyridyl]methyl]propanamide]: 55 nM; `C[C@H](NS(=O)(=O)c1cc2cc(F)ccc2o1)C(=O)NCc1cc(-c2ccc(C(F)(F)F)nn2)ccn1` [Example 244, (2S)-2-[(5-fluorobenzofuran-2-yl)sulfonylamino]-N-[[4-[6-(trifluoromethyl)pyridazin-3-yl]-2-pyridyl]methyl]propanamide]: 44 nM; `C[C@H](NS(=O)(=O)c1cc2cc(F)ccc2o1)C(=O)NCc1cncc(-c2ccc(C(F)(F)F)nc2)c1` [Example 245, (2S)-2-[(5-fluorobenzofuran-2-yl)sulfonylamino]-N-[[5-[6-(trifluoromethyl)-3-pyridyl]-3-pyridyl]methyl]propanamide]: 120 nM. On to `C[C@H](NS(=O)(=O)c1cc2cc(F)ccc2o1)C(=O)NCc1cncc(-c2ccc(C(F)(F)F)cn2)c1` [Example 246, (2S)-2-[(5-fluorobenzofuran-2-yl)sulfonylamino]-N-[[5-[5-(trifluoromethyl)-2-pyridyl]-3-pyridyl]methyl]propanamide], for which the IC50 was found to be 110 nM.

As to `C[C@H](NS(=O)(=O)c1cc2cc(F)ccc2o1)C(=O)NCc1cc(-c2ccc(C(F)(F)F)cn2)ncn1` [Example 247, (2S)-2-[(5-fluorobenzofuran-2-yl)sulfonylamino]-N-[[6-[5-(trifluoromethyl)-2-pyridyl]pyrimidin-4-yl]methyl]propanamide], the IC50 was found to be 64 nM. In the case of `C[C@H](NS(=O)(=O)c1cc2cc(F)ccc2o1)C(=O)NCc1cc(-c2cnc(C(F)(F)F)nc2)ncn1` [Example 248, (2S)-2-[(5-fluorobenzofuran-2-yl)sulfonylamino]-N-[[6-[2-(trifluoromethyl)pyrimidin-5-yl]pyrimidin-4-yl]methyl]propanamide], the concentration for half-maximal inhibition (IC50) came to 20 nM. As for `C[C@H](NS(=O)(=O)c1cc2cc(F)ccc2o1)C(=O)NCc1cnnc(-c2ccc(C(F)(F)F)cc2)c1` [Example 249, (2S)-2-[(5-fluorobenzofuran-2-yl)sulfonylamino]-N-[[6-[4-(trifluoromethyl)phenyl]-pyridazin-4-yl]methyl]propanamide], the IC50 is 170 nM. With `C[C@H](NS(=O)(=O)c1cc2cc(F)ccc2o1)C(=O)NCc1cc(-c2ccc(C(F)(F)F)cc2)cnn1` [Example 250, (2S)-2-[(5-fluorobenzofuran-2-yl)sulfonylamino]-N-[[5-[4-(trifluoromethyl)phenyl]-pyridazin-3-yl]methyl]propanamide] the figure was 72 nM; with `C[C@H](NS(=O)(=O)c1cc2cc(F)ccc2o1)C(=O)NCc1cc(-c2ccc(C(F)(F)F)cn2)cnn1` [Example 251, (2S)-2-[(5-fluorobenzofuran-2-yl)sulfonylamino]-N-[[5-[5-(trifluoromethyl)-2-pyridyl]pyridazin-3-yl]methyl]propanamide], 330 nM; with `C[C@H](NS(=O)(=O)c1cc2cc(F)ccc2o1)C(=O)NCc1ccc(O)c(-c2ccc(C(F)(F)F)cn2)c1` [Example 252, (2S)-2-[(5-fluorobenzofuran-2-yl)sulfonylamino]-N-[[4-hydroxy-3-[5-(trifluoromethyl)-2-pyridyl]-phenyl]methyl]propanamide], 14 nM. For `C[C@H](NS(=O)(=O)c1cc2cc(F)ccc2o1)C(=O)NCc1ccc(O)c(-c2ncc(C(F)(F)F)cn2)c1` [Example 253, (2S)-2-[(5-fluorobenzofuran-2-yl)sulfonylamino]-N-[[4-hydroxy-3-[5-(trifluoromethyl)pyrimidin-2-yl]phenyl]methyl]propanamide], the IC50 was found to be 160 nM. Next, `C[C@H](NS(=O)(=O)c1cc2cc(F)ccc2o1)C(=O)NCc1ccc(O)c(-c2cnc(C(F)(F)F)cn2)c1` [Example 254, (2S)-2-[(5-fluorobenzofuran-2-yl)sulfonylamino]-N-[[4-hydroxy-3-[5-(trifluoromethyl)pyrazin-2-yl]phenyl]methyl]propanamide]: 80 nM; `C[C@H](NS(=O)(=O)c1cc2cc(F)ccc2o1)C(=O)NCc1cc(-c2ccc(C(F)(F)F)cn2)c(O)cn1` [Example 255, (2S)-2-[(5-fluorobenzofuran-2-yl)sulfonylamino]-N-[[5-hydroxy-4-[5-(trifluoromethyl)-2-pyridyl]-2-pyridyl]methyl]propanamide]: 17 nM. Next, `O=C(NCc1cc(-c2ccc(C(F)(F)F)cn2)ccn1)[C@@H]1C[C@@H](O)CN1S(=O)(=O)c1cc2cc(F)ccc2o1` [Example 256, (2S,4R)-1-(5-fluorobenzofuran-2-yl)sulfonyl-4-hydroxy-N-[[4-[5-(trifluoromethyl)-2-pyridyl]-2-pyridyl]methyl]pyrrolidine-2-carboxamide]: 91 nM. With `O=C(NCc1cc(-c2ccc(C(F)(F)F)cn2)ccn1)[C@@H]1[C@H]2C[C@H]2CN1S(=O)(=O)c1cc2cc(F)ccc2o1` [Example 257, (1R,4S,5S)-3-(5-fluorobenzofuran-2-yl)sulfonyl-N-[[4-[5-(trifluoromethyl)-2-pyridyl]-2-pyridyl]methyl]-3-azabicyclo[3.1.0]hexane-4-carboxamide], the IC50 is 64 nM. With `O=C(NCc1cc(-c2ccc(C(F)(F)F)cn2)ccn1)[C@@H]1C[C@H]2C[C@H]2N1S(=O)(=O)c1cc2cc(F)ccc2o1` [Example 258, (1R,3S,5R)-4-(5-fluorobenzofuran-2-yl)sulfonyl-N-[[4-[5-(trifluoromethyl)-2-pyridyl]-2-pyridyl]methyl]-4-azabicyclo[3.1.0]hexane-3-carboxamide] the figure was 1.9 nM; with `O=C(NCc1cc(-c2ccc(C(F)(F)F)cn2)ccn1)[C@@H]1C[C@@H]2C[C@@H]2N1S(=O)(=O)c1cc2cc(F)ccc2o1` [Example 259, (1S,3S,5S)-4-(5-fluorobenzofuran-2-yl)sulfonyl-N-[[4-[5-(trifluoromethyl)-2-pyridyl]-2-pyridyl]methyl]-4-azabicyclo[3.1.0]hexane-3-carboxamide], 1.2 nM. Next, `O=C(NCc1cc(-c2ccc(C(F)(F)F)cn2)ccn1)[C@@H]1C[C@@H](c2ccccc2)CN1S(=O)(=O)c1cc2cc(F)ccc2o1` [Example 260, (2S,4S)-1-(5-fluorobenzofuran-2-yl)sulfonyl-4-phenyl-N-[[4-[5-(trifluoromethyl)-2-pyridyl]-2-pyridyl]methyl]pyrrolidine-2-carboxamide]: 51 nM; `O=C(NCc1cc(-c2ccc(C(F)(F)F)cn2)ccn1)[C@@H]1CCCCN1S(=O)(=O)c1cc2cc(F)ccc2o1` [Example 261, (2S)-1-(5-fluorobenzofuran-2-yl)sulfonyl-N-[[4-[5-(trifluoromethyl)-2-pyridyl]-2-pyridyl]methyl]piperidine-2-carboxamide]: 37 nM.

For `O=C(NCc1cc(-c2ccc(C(F)(F)F)cn2)ccn1)[C@@H]1[C@H]2CC[C@H](C2)N1S(=O)(=O)c1cc2cc(F)ccc2o1` [Example 262, (1S,2S,4R)-3-(5-fluorobenzofuran-2-yl)sulfonyl-N-[[4-[5-(trifluoromethyl)-2-pyridyl]-2-pyridyl]methyl]-3-azabicyclo[2.2.1]heptane-2-carboxamide], the IC50 stood at 2.3 nM. Next, `O=C(NCc1cc(-c2ccc(C(F)(F)F)cn2)ccn1)[C@@H]1CC=CCN1S(=O)(=O)c1cc2cc(F)ccc2o1` [Example 263, (2S)-1-(5-fluorobenzofuran-2-yl)sulfonyl-N-[[4-[5-(trifluoromethyl)-2-pyridyl]-2-pyridyl]methyl]-3,6-dihydro-2H-pyridine-2-carboxamide]: 21 nM.

In the case of `O=C(NCc1cc(-c2ccc(C(F)(F)F)cn2)ccn1)[C@@H]1CCCN1S(=O)(=O)c1cc2c(Cl)nccc2o1` [Example 265, (2S)-1-(4-chlorofuro[3,2-c]pyridin-2-yl)sulfonyl-N-[[4-[5-(trifluoromethyl)-2-pyridyl]-2-pyridyl]methyl]pyrrolidine-2-carboxamide], the IC50 came to 12 nM.

As for `O=C(NCc1cc(C(F)(F)F)ccc1Cl)[C@@H]1CCCN1S(=O)(=O)c1cc2cnccc2o1` [Example 266, (2S)-N-[[2-chloro-5-(trifluoromethyl)phenyl]methyl]-1-furo[3,2-c]pyridin-2-ylsulfonyl-pyrrolidine-2-carboxamide], the IC50 came out at 38 nM. For the molecule `O=C(NCc1cccc(OCc2ccccc2)c1)[C@@H]1CCCN1S(=O)(=O)c1cc2cnccc2o1` [Example 267, (2S)-N-[(3-benzyloxyphenyl)methyl]-1-furo[3,2-c]pyridin-2-ylsulfonyl-pyrrolidine-2-carboxamide], the IC50 was found to be 6.4 nM. As for `O=C(NCc1ccc(Oc2cccc(C(F)(F)F)c2)cc1)[C@@H]1CCCN1S(=O)(=O)c1cc2cnccc2o1` [Example 268, (2S)-1-furo[3,2-c]pyridin-2-ylsulfonyl-N-[[4-[3-(trifluoromethyl)phenoxy]-phenyl]methyl]pyrrolidine-2-carboxamide], the IC50 came out at 29 nM. With `O=C(NCc1cccc(Oc2ccc(C(F)(F)F)cc2)c1)[C@@H]1CCCN1S(=O)(=O)c1cc2cnccc2o1` [Example 269, (2S)-1-furo[3,2-c]pyridin-2-ylsulfonyl-N-[[3-[4-(trifluoromethyl)phenoxy]-phenyl]methyl]pyrrolidine-2-carboxamide], the IC50 amounted to 4.3 nM.

These data come from US10626112B2, “Heterocyclic sulfonamide derivative and medicine comprising same” (EA PHARMA CO., LTD., priority 2014, dated 2020).
